Source: PubChem BioAssay AID2060492 (Molecular Pharmacology Branch, DTP, NCI, 2025)

Test system: 695427-040-R-J1-PDC complex spheroids, viability percent T/C
Assay: Anticancer human tumor 695427-040-R-J1-PDC patient-derived colon adenocarcinoma cell line growth inhibition [GQUAD]
Settings: for IC50: curve of first compound; for viability, T/C: stronger effect = lower value
Text: DNA G-quadruplex Stabilizer Agents in Combinations in Complex Spheroids
A high-throughput screen of multi-cell type tumor spheroids was designed to identify active combinations of DNA G-quadruplex stabilizer agents and targeted small molecules. Complex spheroids include a stromal component modeled by human endothelial cells (HUVEC) and fibroblasts modeled by human mesenchymal stem cells (MSCs). The concentration ranges selected for each drug and investigational agent were based upon clinically achievable concentrations if the clinical Cmax of the agent was known.
Compounds. The drugs and investigational agents: pidnarulex (CX-5461; NSC782164), APTO-253 (NSC789042), BRACO-19 (NSC847499), peposertib (NSC802822), ceralasertib (NSC780249), elimusertib (NSC800525), camonsertib (NSC841442), AZD-1390 (NSC803789), olaparib (NSC753686), talazoparib (NSC767125), ART-558 (NSC835418), sotorasib (NSC818433), MRTX-1133 (NSC836407), SN-38 (NSC673596), topotecan (NSC609699), etoposide (NSC141540), doxorubicin (NSC123127), gemcitabine (NSC613327), 5-fluorouracil (NSC19893), paclitaxel (NSC125973), vemurafenib (NSC761431), panobinostat (NSC761190), R-306465 (JNJ-16241199; NSC773264), adavosertib (NSC754352), TP-3654 (NSC805149), carboplatin (NSC241240), KSQ-4279 (NSC840948), and staurosporine (NSC755774) were obtained from the National Cancer Institute (NCI) Developmental Therapeutics Program Chemical Repository (34). The FDA-approved anticancer drug set is available from the NCI Developmental Therapeutics Program. […] The stock solutions were prepared in dimethyl sulfoxide (DMSO, Sigma-Aldrich, St. Louis, MO, cat. D2650) at 800-fold the tested concentration and stored at -70 degrees C prior to their use. All drugs and investigational agents were tested over a range starting from a high concentration at or near the clinical Cmax and decreasing in half-log increments. If the clinical Cmax for an agent had not been determined, the highest concentration tested was 10 microM.
2.3 Cell Culture. All cells were maintained in an incubator at 37 degrees C and 5% CO2 with 95% humidity. The PDC lines were cultured according to standard operating procedures established by the NCI PDMR. All PDCs were thawed and cultured in Matrigel-coated flasks prepared with a working solution of 1X Ham's F-12 nutrient mix, without supplementation (Invitrogen, cat. 11765054), 100 U/mL penicillin-streptomycin (Invitrogen, cat. 15140122), and 2.5% Matrigel (Corning Inc., cat. 354248) for the first three passages. The 857933-349-R-J2-PDC line was cultured in 6C/Colon 1B media, which includes advanced DMEM/F-12 (Thermo Fisher Scientific, cat. 12634028), 10 mM HEPES (Thermo Fisher Scientific, cat. 15630080), 1X GlutaMAX supplement (Thermo Fisher Scientific, cat. 35050061), 0.1 mg/mL primocin (InvivoGen, cat. ant-pm-2), 10% defined fetal bovine serum, heat inactivated (HyClone Laboratories Inc., cat. SH30070.03HI), 50% L-WRN conditioned media (ATCC, cat. CRL-3276), 1.25 mM N-Acetyl-L-cysteine (Sigma-Aldrich, cat. A9165), 10 mM nicotinamide (Sigma-Aldrich, cat. N0636), 1X B-27 supplement (Thermo Fisher Scientific, cat. 17504044), 1X N-2 supplement (Thermo Fisher Scientific, cat. 17502048), 10 microM Y-27632 dihydrochloride (Tocris Bioscience, cat. 1254), and 50 ng/mL human EGF recombinant protein (Thermo Fisher Scientific, cat. PHG0311). The 485176-168-R4-J1-PDC line was cultured in Panc media, which includes all 6C/Colon 1B media components plus 100 ng/mL human FGF-10 (Thermo Fisher Scientific, cat. 100-26), 500 nM SB-431542 (Selleckchem, cat. S1067), and gastrin (Tocris, cat. 3006).
[…]

[1] = second compound 0.0316 µM, first compound 0.0316 µM
[2] = second compound 0.0316 µM, first compound 0.1 µM
[3] = second compound 0.0316 µM, first compound 0.316 µM
[4] = second compound 0.0316 µM, first compound 1 µM
[5] = second compound 0.0316 µM, first compound 3.16 µM
[6] = second compound 0.0316 µM, first compound 10 µM
[7] = second compound 0.1 µM, first compound 0.0316 µM
[8] = second compound 0.1 µM, first compound 0.1 µM
[9] = second compound 0.1 µM, first compound 0.316 µM
[10] = second compound 0.1 µM, first compound 1 µM
[11] = second compound 0.1 µM, first compound 3.16 µM
[12] = second compound 0.1 µM, first compound 10 µM
[13] = second compound 0.316 µM, first compound 0.0316 µM
[14] = second compound 0.316 µM, first compound 0.1 µM
[15] = second compound 0.316 µM, first compound 0.316 µM
[16] = second compound 0.316 µM, first compound 1 µM
[17] = second compound 0.316 µM, first compound 3.16 µM
[18] = second compound 0.316 µM, first compound 10 µM
[19] = second compound 1 µM, first compound 0.0316 µM
[20] = second compound 1 µM, first compound 0.1 µM
[21] = second compound 1 µM, first compound 0.316 µM
[22] = second compound 1 µM, first compound 1 µM
[23] = second compound 1 µM, first compound 3.16 µM
[24] = second compound 1 µM, first compound 10 µM
[25] = second compound 3.16 µM, first compound 0.0316 µM
[26] = second compound 3.16 µM, first compound 0.1 µM
[27] = second compound 3.16 µM, first compound 0.316 µM
[28] = second compound 3.16 µM, first compound 1 µM
[29] = second compound 3.16 µM, first compound 3.16 µM
[30] = second compound 3.16 µM, first compound 10 µM
[31] = second compound 10 µM, first compound 0.0316 µM
[32] = second compound 10 µM, first compound 0.1 µM
[33] = second compound 10 µM, first compound 0.316 µM
[34] = second compound 10 µM, first compound 1 µM
[35] = second compound 10 µM, first compound 3.16 µM
[36] = second compound 10 µM, first compound 10 µM
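Further: spheroids exposed to compounds for seven days before readout.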

Structure (SMILES): C=CC(=O)N1CCN(c2nc(=O)n(-c3c(C)ccnc3C(C)C)c3nc(-c4c(O)cccc4F)c(F)cc23)C(C)C1 (centres undefined) + Cc1[nH]c2ccc(F)cc2c1-c1nc2c3cccnc3c3ncccc3c2[nH]1
- IC50 (second compound 0.0316 µM): > 10 µM
- IC50 (second compound 0.1 µM): > 10 µM
- IC50 (second compound 0.316 µM): > 10 µM
- IC50 (second compound 1 µM): > 10 µM
- IC50 (second compound 3.16 µM): > 10 µM
- IC50 (second compound 10 µM): > 10 µM
- viability, T/C [1]: 108%
- viability, T/C [2]: 86%
- viability, T/C [3]: 107%
- viability, T/C [4]: 83%
- viability, T/C [5]: 93.2%
- viability, T/C [6]: 90.2%
- viability, T/C [7]: 101%
- viability, T/C [8]: 87.6%
- viability, T/C [9]: 99.9%
- viability, T/C [10]: 67.8%
- viability, T/C [11]: 104%
- viability, T/C [12]: 106%
- viability, T/C [13]: 102%
- viability, T/C [14]: 95.7%
- viability, T/C [15]: 84.2%
- viability, T/C [16]: 94.8%
- viability, T/C [17]: 86.9%
- viability, T/C [18]: 92.8%
- viability, T/C [19]: 80.5%
- viability, T/C [20]: 90%
- viability, T/C [21]: 79.6%
- viability, T/C [22]: 101%
- viability, T/C [23]: 104%
- viability, T/C [24]: 76.8%
- viability, T/C [25]: 69%
- viability, T/C [26]: 77.1%
- viability, T/C [27]: 81.5%
- viability, T/C [28]: 86.5%
- viability, T/C [29]: 90.3%
- viability, T/C [30]: 86.8%
- viability, T/C [31]: 73.6%
- viability, T/C [32]: 81.2%
- viability, T/C [33]: 86.2%
- viability, T/C [34]: 82.7%
- viability, T/C [35]: 81.8%
- viability, T/C [36]: 69.1%

Structure (SMILES): CC1COCCN1c1cc(C2(O)CC3CCC(C2)O3)c2cnn(-c3ccn[nH]3)c2n1 (centres undefined) + Cc1[nH]c2ccc(F)cc2c1-c1nc2c3cccnc3c3ncccc3c2[nH]1
- IC50 (second compound 0.0316 µM): 0.735 µM
- IC50 (second compound 0.1 µM): 0.59 µM
- IC50 (second compound 0.316 µM): 0.569 µM
- IC50 (second compound 1 µM): 0.29 µM
- IC50 (second compound 3.16 µM): 0.253 µM
- IC50 (second compound 10 µM): 0.455 µM
- viability, T/C [1]: 83.2%
- viability, T/C [2]: 84.2%
- viability, T/C [3]: 65.7%
- viability, T/C [4]: 42.5%
- viability, T/C [5]: 36%
- viability, T/C [6]: 24.6%
- viability, T/C [7]: 93.8%
- viability, T/C [8]: 77.5%
- viability, T/C [9]: 70.4%
- viability, T/C [10]: 31.4%
- viability, T/C [11]: 37.6%
- viability, T/C [12]: 28.1%
- viability, T/C [13]: 85.2%
- viability, T/C [14]: 64%
- viability, T/C [15]: 60.6%
- viability, T/C [16]: 41.7%
- viability, T/C [17]: 37.5%
- viability, T/C [18]: 30.2%
- viability, T/C [19]: 86.2%
- viability, T/C [20]: 55.8%
- viability, T/C [21]: 55.2%
- viability, T/C [22]: 33.6%
- viability, T/C [23]: 41%
- viability, T/C [24]: 21.2%
- viability, T/C [25]: 67%
- viability, T/C [26]: 55.8%
- viability, T/C [27]: 50.9%
- viability, T/C [28]: 34.2%
- viability, T/C [29]: 33.2%
- viability, T/C [30]: 17.4%
- viability, T/C [31]: 59%
- viability, T/C [32]: 59.8%
- viability, T/C [33]: 61.7%
- viability, T/C [34]: 27.9%
- viability, T/C [35]: 30.4%
- viability, T/C [36]: 22.3%
